# Reference: ChEMBL document CHEMBL5244239, “Penicillin binding protein 2a: An overview and a medicinal chemistry perspective” (Eur J Med Chem, 2020)
# Assays:
# Staphylococcus aureus [1] = test: Antibacterial activity against methicillin sensitive Staphylococcus aureus ATCC 29213; assay type: functional
# Staphylococcus aureus [2] = test: Potentiation of oxacillin against methicillin resistant Staphylococcus aureus OM584 assessed as fold increase in oxacillin activity; assay type: functional
# Staphylococcus aureus [3] = test: Potentiation of oxacillin against methicillin resistant Staphylococcus aureus OM481 assessed as fold increase in oxacillin activity; assay type: functional
# Staphylococcus aureus [4] = test: Potentiation of oxacillin against methicillin resistant Staphylococcus aureus OM623 assessed as fold increase in oxacillin activity; assay type: functional
# Staphylococcus aureus [5] = test: Potentiation of oxacillin against methicillin resistant Staphylococcus aureus OM505 assessed as fold increase in oxacillin activity; assay type: functional
# Staphylococcus aureus [6] = test: Antibacterial activity against methicillin resistant Staphylococcus aureus ATCC 43300; assay type: functional
# [7] = molecular target: T1, Penicillin-binding protein 2x (Streptococcus pneumoniae serotype 4 (strain ATCC BAA-334 / TIGR4), UniProt P14677); test: Binding affinity to Streptococcus pneumoniae PBP2x
# T1 sequence (P14677 whole entry): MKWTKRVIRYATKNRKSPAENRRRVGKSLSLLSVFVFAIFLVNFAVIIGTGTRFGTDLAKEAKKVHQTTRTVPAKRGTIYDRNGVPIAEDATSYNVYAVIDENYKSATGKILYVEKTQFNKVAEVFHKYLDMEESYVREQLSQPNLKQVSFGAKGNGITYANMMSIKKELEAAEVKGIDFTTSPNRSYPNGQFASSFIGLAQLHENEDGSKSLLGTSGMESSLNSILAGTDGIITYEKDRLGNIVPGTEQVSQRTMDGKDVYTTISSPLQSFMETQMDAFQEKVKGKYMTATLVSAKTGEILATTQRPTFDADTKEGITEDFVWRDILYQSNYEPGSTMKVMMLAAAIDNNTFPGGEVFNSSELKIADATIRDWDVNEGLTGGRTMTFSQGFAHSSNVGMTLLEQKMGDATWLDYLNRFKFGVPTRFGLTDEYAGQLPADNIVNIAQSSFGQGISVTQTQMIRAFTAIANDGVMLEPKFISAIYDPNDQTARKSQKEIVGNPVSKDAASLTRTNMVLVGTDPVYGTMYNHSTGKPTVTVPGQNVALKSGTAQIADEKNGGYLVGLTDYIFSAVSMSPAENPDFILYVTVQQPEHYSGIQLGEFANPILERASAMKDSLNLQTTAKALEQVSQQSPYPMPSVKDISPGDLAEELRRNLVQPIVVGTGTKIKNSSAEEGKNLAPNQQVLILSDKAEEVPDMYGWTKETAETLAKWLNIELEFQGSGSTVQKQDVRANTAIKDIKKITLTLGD
# Staphylococcus aureus [8] = test: Antibacterial activity against methicillin resistant Staphylococcus aureus mp 1; assay type: functional
# MecA [9] = molecular target: T2, MecA (Staphylococcus aureus, UniProt Q7DHH4); test: Binding affinity to Staphylococcus aureus ATCC 43300 PBP2a
# T2 sequence (Q7DHH4 whole entry): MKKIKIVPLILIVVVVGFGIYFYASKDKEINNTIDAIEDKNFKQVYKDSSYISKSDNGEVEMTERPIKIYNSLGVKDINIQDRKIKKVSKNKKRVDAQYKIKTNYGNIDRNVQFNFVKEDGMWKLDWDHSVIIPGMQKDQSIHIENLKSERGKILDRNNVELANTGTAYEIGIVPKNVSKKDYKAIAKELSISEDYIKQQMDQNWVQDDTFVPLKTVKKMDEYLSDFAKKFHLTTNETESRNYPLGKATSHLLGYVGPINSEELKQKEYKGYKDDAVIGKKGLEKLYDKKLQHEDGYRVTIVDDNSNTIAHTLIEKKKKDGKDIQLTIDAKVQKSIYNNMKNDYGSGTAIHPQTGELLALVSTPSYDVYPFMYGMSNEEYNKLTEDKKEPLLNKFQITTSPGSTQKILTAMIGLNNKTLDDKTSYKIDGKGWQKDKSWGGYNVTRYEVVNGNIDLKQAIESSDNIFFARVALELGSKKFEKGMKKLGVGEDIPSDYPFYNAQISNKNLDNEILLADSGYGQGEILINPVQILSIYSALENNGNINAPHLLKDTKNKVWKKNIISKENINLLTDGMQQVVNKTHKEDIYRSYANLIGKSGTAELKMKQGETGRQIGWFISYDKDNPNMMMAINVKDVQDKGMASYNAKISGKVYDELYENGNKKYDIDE
# Staphylococcus aureus [10] = test: Antibacterial activity against methicillin resistant Staphylococcus aureus; assay type: functional
# Enterococcus faecium = test: Antibacterial activity against vancomycin-resistant Enterococcus faecium; assay type: functional
# MecA [11] = molecular target: T2, MecA; test: Displacement of [3H]-penicillin from Staphylococcus aureus PBP2a
# [12] = Binding affinity to methicillin sensitive Staphylococcus aureus PBP2
# Staphylococcus aureus [13] = test: Antibacterial activity against methicillin resistant Staphylococcus aureus 13101; assay type: functional
# [14] = Binding affinity to methicillin sensitive Staphylococcus aureus PBP3
# [15] = Binding affinity to methicillin sensitive Staphylococcus aureus PBP4
# [16] = molecular target: T3, Penicillin-binding protein 1 (Staphylococcus aureus, UniProt Q53725); test: Binding affinity to methicillin sensitive Staphylococcus aureus PBP1
# T3 sequence (Q53725 whole entry): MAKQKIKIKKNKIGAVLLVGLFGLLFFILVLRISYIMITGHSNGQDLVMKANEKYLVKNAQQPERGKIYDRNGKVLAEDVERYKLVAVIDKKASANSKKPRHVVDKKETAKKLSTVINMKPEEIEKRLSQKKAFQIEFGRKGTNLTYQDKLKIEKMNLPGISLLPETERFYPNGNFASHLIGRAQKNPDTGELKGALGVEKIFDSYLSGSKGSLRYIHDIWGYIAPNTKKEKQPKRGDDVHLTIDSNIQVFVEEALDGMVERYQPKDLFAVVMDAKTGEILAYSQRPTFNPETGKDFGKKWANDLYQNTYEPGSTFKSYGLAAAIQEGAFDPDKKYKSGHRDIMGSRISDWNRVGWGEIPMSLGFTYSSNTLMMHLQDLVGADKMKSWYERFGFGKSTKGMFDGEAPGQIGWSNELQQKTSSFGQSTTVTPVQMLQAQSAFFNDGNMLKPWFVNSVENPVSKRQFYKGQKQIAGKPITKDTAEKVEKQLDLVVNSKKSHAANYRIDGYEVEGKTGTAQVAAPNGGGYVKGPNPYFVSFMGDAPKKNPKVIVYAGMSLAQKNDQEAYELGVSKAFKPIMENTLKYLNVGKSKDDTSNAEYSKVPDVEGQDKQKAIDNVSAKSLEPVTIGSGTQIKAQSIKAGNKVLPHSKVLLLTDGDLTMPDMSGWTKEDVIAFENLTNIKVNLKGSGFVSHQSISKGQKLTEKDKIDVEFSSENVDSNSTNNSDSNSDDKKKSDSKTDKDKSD
# MecA [17] = molecular target: T2, MecA; test: Binding affinity to methicillin resistant Staphylococcus aureus PBP2a
# Staphylococcus aureus [18] = test: Antibacterial activity against methicillin resistant Staphylococcus aureus TMHS-5006; assay type: functional
# Staphylococcus aureus [19] = test: Antibacterial activity against methicillin resistant Staphylococcus aureus TMHS-3125; assay type: functional
# Staphylococcus aureus [20] = test: Antibacterial activity against methicillin resistant Staphylococcus aureus 4977; assay type: functional
# Staphylococcus aureus [21] = test: Antibacterial activity against methicillin resistant Staphylococcus aureus TMHS-5007; assay type: functional
# MecA [22] = molecular target: T2, MecA; test: Inhibition of Staphylococcus aureus PBP2a
# Staphylococcus aureus [23] = test: Potentiation of oxacillin against methicillin resistant Staphylococcus aureus assessed as fold increase in oxacillin activity; assay type: functional
# MecA [24] = molecular target: T2, MecA; test: Binding affinity to methicillin resistant Staphylococcus aureus PBP2a by MST method
# Staphylococcus aureus [25] = test: Antibacterial activity against methicillin resistant Staphylococcus aureus PL 1; assay type: functional
# Staphylococcus aureus [26] = test: Antibacterial activity against methicillin sensitive Staphylococcus aureus NRS120; assay type: functional
# Staphylococcus aureus [27] = test: Antibacterial activity against Vancomycin-resistant Staphylococcus aureus 2; assay type: functional
# Staphylococcus aureus [28] = test: Antibacterial activity against methicillin sensitive Staphylococcus aureus NRS128; assay type: functional
# Staphylococcus aureus [29] = test: Antibacterial activity against methicillin sensitive Staphylococcus aureus NRS123; assay type: functional
# Staphylococcus aureus [30] = test: Antibacterial activity against methicillin sensitive Staphylococcus aureus NRS100; assay type: functional
# Staphylococcus aureus [31] = test: Antibacterial activity against methicillin sensitive Staphylococcus aureus NRS70; assay type: functional
# Staphylococcus aureus [32] = test: Antibacterial activity against Vancomycin-resistant Staphylococcus aureus 1; assay type: functional
# [33] = molecular target: T3, Penicillin-binding protein 1; test: Inhibition of Staphylococcus aureus PBP1
# Staphylococcus aureus [34] = test: Antibacterial activity against methicillin sensitive Staphylococcus aureus NRS119; assay type: functional
smiles,measurement,setting,value
O=c1c2ccccc2nc(/C=C/c2ccc([N+](=O)[O-])cc2)n1-c1cccc(O)c1,MIC,Staphylococcus aureus [1],2 µg/mL
O=C(O[C@H]1[C@@H]2OC(=O)c3cc(O)c(O)c(O)c3-c3c(cc(O)c(O)c3O)C(=O)OC[C@H]2OC(O)[C@@H]1OC(=O)c1cc(O)c(O)c(O)c1)c1cc(O)c(O)c(O)c1 (stereo partly drawn),fold change (FC),Staphylococcus aureus [2],100
same,fold change (FC),Staphylococcus aureus [3],100
same,fold change (FC),Staphylococcus aureus [4],100
same,fold change (FC),Staphylococcus aureus [5],100
CCCCOc1ccc2cc(S(=O)(=O)Nc3ccccc3C(=O)O)ccc2c1,MIC,Staphylococcus aureus [6],32 µg/mL
same,IC50,[7],391 µM
same,MIC,Staphylococcus aureus [8],32 µg/mL
same,IC50,MecA [9],97 µM
CC(=O)/C(=C/c1cn(CC(=O)N2CCCCC2)c2ccccc12)n1cc([N+](=O)[O-])nc1C,MIC,Staphylococcus aureus [10],1 µg/mL
CCCOc1ccc2cc(C(=O)Nc3ccc(Br)cc3C(=O)O)ccc2c1,MIC,Staphylococcus aureus [6],128 µg/mL
same,MIC,Staphylococcus aureus [8],128 µg/mL
same,IC50,MecA [9],210 µM
Nc1ccc(-c2nc(-c3ccc(Oc4ccc(C(F)(F)F)cc4)cc3)no2)cc1,MIC,Staphylococcus aureus [10],1 µg/mL
same,MIC,Enterococcus faecium,1 µg/mL
C#Cc1ccc(/C=C/c2nc3ccccc3c(=O)n2-c2cccc(C(=O)O)c2)cc1,MIC,Staphylococcus aureus [10],0.03 µg/mL
CCCOc1cccc(C(=O)Nc2ccc(Br)cc2C(=O)O)c1,MIC,Staphylococcus aureus [6],32 µg/mL
same,MIC,Staphylococcus aureus [8],32 µg/mL
same,IC50,MecA [9],230 µM
C[C@@H](O)[C@H]1C(=O)N2C(C(=O)[O-])=C(c3ccc4c(c3)-c3ccc(C[n+]5ccn(C)c5)cc3C4=O)[C@H](C)[C@H]12,IC50,MecA [11],2.48 µM
same,MIC,Staphylococcus aureus [10],16 µg/mL
CCCOc1cccc(C(=O)Nc2ccc(C)cc2C(=O)O)c1,MIC,Staphylococcus aureus [6],256 µg/mL
same,MIC,Staphylococcus aureus [8],256 µg/mL
same,IC50,MecA [9],680 µM
CCO/N=C(\C(=O)N[C@@H]1C(=O)N2C(C(=O)[O-])=C(Sc3nc(-c4cc[n+](C)cc4)cs3)CS[C@H]12)c1nsc(N)n1 [CEFTAROLINE],IC50,[12],0.1 µg/mL
same,MIC,Staphylococcus aureus [13],2 µg/mL
same,IC50,[14],0.1 µg/mL
same,IC50,[15],> 1 µg/mL
same,IC50,[16],0.165 µM
same,IC50,MecA [17],0.265 µM
same,MIC,Staphylococcus aureus [18],> 32 µg/mL
same,MIC,Staphylococcus aureus [19],> 32 µg/mL
same,MIC,Staphylococcus aureus [20],2 µg/mL
same,MIC,Staphylococcus aureus [21],> 32 µg/mL
CC1(C)S[C@@H]2[C@H](N)C(=O)N2[C@H]1C(=O)O,IC50,MecA [22],7000 µM
C=C1CCC[C@@H]2Nc3ccc(Br)cc3[C@]12CCNS(=O)(=O)c1ccc(Cl)cc1,fold change (FC),Staphylococcus aureus [23],128
COC(=O)C1=C[C@]2(C)C[C@@]34CC[C@@H]5[C@H](C=CC(=O)C5(C)C)[C@]35OC[C@]14[C@](C)(CC2=O)O5,MIC,Staphylococcus aureus [10],32 µg/mL
same,Kd,MecA [24],18.4 µM
Oc1ccc(-c2nc(-c3ccc(Oc4ccc(C(F)(F)F)cc4)cc3)no2)cc1,MIC,Staphylococcus aureus [10],1 µg/mL
same,MIC,Enterococcus faecium,1 µg/mL
Nc1nc(/C(=N/O)C(=O)N[C@@H]2C(=O)N3C(C(=O)O)=C(/C=C4\CCN([C@@H]5CCNC5)C4=O)CS[C@H]23)ns1 [CEFTOBIPROLE],MIC,Staphylococcus aureus [10],0.5 µg/mL
C[C@@H](NC(=O)c1c(F)cccc1-c1ccccc1)B(O)O,MIC,Staphylococcus aureus [6],32 µg/mL
same,MIC,Staphylococcus aureus [25],32 µg/mL
Oc1ccc(-c2nc(-c3ccc(Oc4ccccc4)cc3)no2)cc1,MIC,Staphylococcus aureus [10],1 µg/mL
same,MIC,Enterococcus faecium,1 µg/mL
O=C(O[C@@H]1O[C@@H]2COC(=O)c3cc(O)c(O)c(O)c3-c3c(cc(O)c(O)c3O)C(=O)O[C@H]([C@H]1O)[C@@H]2O)c1cc(O)c(O)c(O)c1 [CORILAGIN],fold change (FC),Staphylococcus aureus [2],100
same,fold change (FC),Staphylococcus aureus [3],100
same,fold change (FC),Staphylococcus aureus [4],100
same,fold change (FC),Staphylococcus aureus [5],100
CCCOc1cccc(C(=O)Nc2ccccc2C(=O)O)c1,MIC,Staphylococcus aureus [6],512 µg/mL
same,MIC,Staphylococcus aureus [8],512 µg/mL
same,IC50,MecA [9],910 µM
N#Cc1ccc(/C=C/c2nc3ccccc3c(=O)n2-c2cccc(C(=O)O)c2)cc1,MIC,Staphylococcus aureus [1],2 µg/mL
same,MIC,Staphylococcus aureus [26],2 µg/mL
same,IC50,MecA [22],356 µM
same,MIC,Staphylococcus aureus [27],2 µg/mL
same,MIC,Staphylococcus aureus [28],2 µg/mL
same,MIC,Staphylococcus aureus [29],2 µg/mL
same,MIC,Staphylococcus aureus [30],2 µg/mL
same,MIC,Staphylococcus aureus [31],2 µg/mL
same,MIC,Staphylococcus aureus [32],2 µg/mL
same,IC50,[33],78 µg/mL
same,MIC,Staphylococcus aureus [34],2 µg/mL
